The values below come from patent US12577278B2, “KRAS G12V mutant binds to JAK1, inhibitors, pharmaceutical compositions, and methods related thereto” (Emory University, priority 2019, dated 2026).

Series [1] has as its system KRAS isogenic cell lines SW48, LIM1215, H838. The experiment in a line: IFNγ-induced cell death in KRAS-WT and G12V isogenic cells. Particulars: FIG. 4A; for cell killing without IFNγ: no IFNγ. In kind it is cell-based. The source says: Bar graphs show the cell death of three pairs of KRAS isogenic cell lines SW48, LIM1215, H838 under different treatment conditions.
Bar graphs show cell death in three KRAS isogenic G12V cell lines in response to IFNγ stimulation and 8-mer peptide, with or without treatment with a JAK1 inhibitor or an IFNγ-receptor antagonist.

Series [2] concerns IFN-γ stimulated STAT1 transcription. The experiment in a line: STAT1 transcription dual-luciferase assay in HEK293T cells. In kind it is cell-based. The settings on record: JAK1 and KRAS-G12V co-expressed with RasKi, 1 ng/ml IFN-γ 18 hours, FIG. 3A. How it is done:
STAT1 transcriptional activity was tested in HEK293T cells with a dual-luciferase assay. Luciferase activity was measured upon co-expression of JAK1 and KRAS WT, G12V, or G12V with 8-mer. Fold of Control (FOC) with IFN-γ stimulation was calculated comparing to samples without IFN-γ stimulation. Cells were treated with 1 ng/ml IFN-γ for 18 hours after 24 hours of transfection. Dual-luciferase assays were performed, and relative luciferase activity was measured normalized to Renilla luciferase control.

Series [3] addresses T1, KRAS-G12V-JAK1 interaction (Homo sapiens, UniProt P01116, G12V). Briefly: TR-FRET assay of the KRAS-G12V/JAK1 interaction in HEK293T lysate. In kind it is binding. The settings on record: FIG. 2B, 2D. How it is done: TR-FRET titration assay was performed with HEK293T lysate that had been co-transfected with His-KRAS-G12V and Flag-JAK1. TR-FRET signals were recorded upon treatment with the synthetic peptide 8-mer (RasKi) or the 9-mer control (0 to 50 μM).
Cell lysate from HEK293T cells co-expressing GST-KRAS-G12V and Venus-Flag-JAK1 was treated with the synthetic peptide 8-mer WT ([…], SEQ ID NO: 1) or an 8-mer with K606E mutation. A panel of mutations in 8-mer (5 μM) were tested including M603A ([…], SEQ ID NO: 2).
(In general: TR-FRET usually uses a lanthanide donor and a delayed reading to cut background.)

Series [4] in a line: cell permeability of the peptide. In kind it is cell-based.
Series [5] concerns KRAS isogenic cell lines SW48, LIM1215, H838. Briefly: NK92 cell-induced death of KRAS-WT and G12V isogenic cells. In kind it is cell-based. The settings on record: FIG. 4C. The source says:
Dose-dependent killing curves of RasKi/8-mer peptide are shown for KRAS WT and G12V isogenic SW48, LIM1215, H838 cell lines with or without NK92 cell stimulation from cell viability readouts.
RasKi dose-dependent cell death curves were established for KRAS isogenic cell lines treated with JAK1 inhibitor or IFNγ-receptor antagonist in response to NK92 cell stimulation. Bar graphs show integrated results from area under curve (AUC) data of each treatment condition.

The target of series [6] is T1, KRAS-G12V-JAK1 interaction. The experiment in a line: GST-affinity pull-down assay. In kind it is binding.
In series [7] the test system is JAK-STAT pathway. Briefly: Western blot of JAK-STAT pathway signaling in HEK293T cells. In kind it is cell-based. Particulars: HEK293T with KRAS-G12V, FIG. 3B. The method, then:
Western Blot was performed to detect the JAK-STAT pathway signaling change in HEK293T cells with overexpressed JAK1 along with KRAS-WT, G12V, or G12V with 8-mer, with or without IFN-γ stimulation (1 ng/ml, 30 minutes). FOC bar graphs show the levels of phosphorylated STAT1 and STAT3 phosphorylation, and the expression of IRF1 and TAP1 after IFN-γ stimulation in comparison to that without stimulation.

Series [8] concerns HLA-A2+ KRAS WT/G12V cancer cells. Briefly: anti-NY-ESO-1 CD8+ T cell-mediated killing, CellTiter Blue viability. In kind it is cell-based. Particulars: under T-cell stimulation; FIG. 5A-5F. The method, then:
The lentivirus-transduced HLA-A2+ parental KRAS WT cells, SW48-A2+ and their KRAS G12V knock-in isogenic cells were co-cultured with anti-NY-ESO-1 CD8+ T cells, or treated with RasKi, RasKi-K606E, or in combinations as indicated. The cell viability after treatment was measured using CellTiter Blue™ reagent. The growth inhibition was normalized to the untreated control.
The lentivirus-transduced HLA-A2+ patient derived KRAS WT colon cancer cells (SW48-A2+, LIM1215-A2+ and Caco-2-A2+) and KRASG12V colon cancer cells (SW403-A2+, SW480-A2+ and SW620-A2+) were co-cultured with anti-NY-ESO-1 CD8+ T cells, or treated with RasKi, RasKi-K606E, or in combinations as indicated. The cell viability after treatment was measured using CellTiter Blue™ reagent. The growth inhibition was normalized to the untreated control.
The G12V isogenic cells (SW48G12V-A2+, LIM1215G12V-A2+ and H838G12V-A2+) and were co-cultured with anti-NY-ESO-1 CD8+ T cells and treated with RasKi, or in addition with JAK inhibitor (JAKi) or IFNγ receptor antagonist (IFNγRa) as indicated. The cell viability after treatment was measured using CellTiter Blue™ reagent. The growth inhibition was normalized to the untreated control. Each dot represents an individual cell line.
A gene-engineered CD8+ T cell was produced to specifically target an antigen expressed in an HLA-class I-restricted manner. […]
In general terms: Alamar Blue is a resazurin reagent that responds to reducing activity.

Series [9] deals with JAK-STAT pathway. Briefly: IFN-γ stimulated signaling under endogenous conditions in SW48 KRAS isogenic cell lines (luciferase, Western blot, RT-qPCR). In kind it is cell-based. Particulars: SW48 G12V cells, IFN-γ 1 ng/ml 18 hours, FIG. 3E. How it is done:
FOC (Fold of control) of STAT1 transcriptional activity was calculated in SW48 (KRAS isogenic colon cancer) WT and G12V cell lines with IFN-γ stimulation comparing to that without IFN-γ stimulation. RasKi was transduced into G12V cells by lentivirus. Cells were treated with IFN-γ (1 ng/ml) for 18 hours after 24 hours of transduction. Dual-luciferase assays were performed, and relative luciferase activity was measured, normalized to Renilla luciferase control.
Western Blot was performed to detect changes in the JAK-STAT pathway in SW48 cell lines (KRAS isogenic colon cancer with G12V), with or without IFN-γ (1 ng/ml) for 30 minutes. FOC bar graphs show STAT1/3 phosphorylation, IRF1 and TAP1 expression in three groups after IFN-γ stimulation comparing to basal level.
Expression of TAP1, IRF1, PD-L1 mRNA was normalized to GAPDH in SW48 cell lines as detected using RT-qPCR (reverse transcription-quantitative polymerase chain reaction). Cells were treated with IFN-γ (1 ng/ml) for 18 hours.

For series [10], the target named is T1, KRAS-G12V-JAK1 interaction. The experiment in a line: GST-affinity pull-down assay under endogenous conditions. On the set-up: endogenous in cells. Particulars: FIG. 2F. In kind it is binding.

Where a SMILES comes first, the peptide text is derived from it.

In the case of `CSCC[C@H](N)C(=O)N[C@@H](CC(=O)O)C(=O)N[C@@H](Cc1ccc(O)cc1)C(=O)N[C@@H](CCCCN)C(=O)N[C@@H](CC(=O)O)C(=O)N[C@@H](CC(=O)O)C(=O)N[C@@H](CCC(=O)O)C(=O)NCC(=O)O` [RasKi] (H-MDYKDDEG-OH; N-terminus and C-terminus assumed), the “cell killing without IFNγ” value in [1] is reported as “no difference”; in [1] (listed as 8-mer) it was “No cell killing effect”. Besides, the “IFNγ-induced killing effect in cells with KRAS-G12V” value in series [1] (with IFNγ, compared to KRAS-WT cells) is “drastically increased”. Further, the “STAT1 transcriptional activity upon IFNγ treatment” value in series [2] was “completely reversed the KRAS-G12V effect”. Moreover, in [3], the “disruption of the JAK1/KRAS-G12V interaction” value is “effectively disrupt”. For the same molecule, the cell permeability result in series [4] is reported as “cell permeable”. Also, in [5] (KRAS WT cells, NK92 co-culture), the “killing of cells with WT KRAS together with NK92 cells” value is “but not cells with WT KRAS”. In addition, the “killing of cancer cells with KRAS-G12V together with NK92 cells” value in series [5] (KRAS-G12V cells, NK92 co-culture) is recorded as “synergized with NK92 cells to induce dose-dependent killing”. In addition, in [5] (WT or G12V cells, without NK92 cells), the “viability of cancer cells, peptide per se” value is reported as “had no effect”. The “competition with JAK1 full length for binding to KRAS-G12V” value in series [6] (GST pull-down, FIG. 2C, 2E) is reported as “can compete”. Besides, the “binding to KRAS-G12V” value in series [6] (JAK1 truncation mapping) is recorded as “sufficient for KRAS-G12V binding”. Also, the STAT1/3 phosphorylation entry in [7] (IFN-γ 1 ng/ml, 30 minutes) is recorded as “increased”. In addition, the “expression of IRF1 and TAP1 proteins” value in [7] (IFN-γ stimulation) is “increased”. Also, the “T-cell killing in G12V cells” value in [8] was “enhanced T-cell killing”. The “expression of mRNAs for IRF1, TAP1, and PD-L1” value in series [9] is reported as “increased”. Also, the “disruption of the KRAS-G12V/JAK1 interaction at endogenous level” value in series [10] is recorded as “effectively disrupt the interaction”.
